Species on record: Rattus norvegicus
Assay: Open TG-GATES - Regimen: Daily Repeat
Format: toxicity, organism-based, Sprague-Dawley
Parameters: regimen Daily Repeat, gender Male, age 6 weeks
Conditions: in vivo, po, 30 mg/kg, route gavage, dose level Low; for APTT / Bas / Eos / Fbg / Hb / Ht / Lym / MCH / MCHC / MCV / Mono / Neu / PT / Plat / RBC / Ret / WBC: tissue Blood; for KIDNEY_L / KIDNEY_R / KIDNEY_TOTAL: tissue Kidney; for LIVER: tissue Liver; for A/G / ALP / ALT / AST / BUN / CRE / Ca / Cl / DBIL / GLC / IP / K / LDH / Na / PL / RALB / TBIL / TC / TG / TP / gamma-GTP: tissue Plasma

ClC(Cl)(Cl)Cl [CARBON TETRACHLORIDE]
TERMINAL_BW (72 h, time 3 day): 222 g
APTT (72 h, time 3 day): 18.7 s
Bas (72 h, time 3 day): 0%
Eos (72 h, time 3 day): 1%
Fbg (72 h, time 3 day): 237.4 mg/dL
Hb (72 h, time 3 day): 13.4 g/dL
Ht (72 h, time 3 day): 39.2%
Lym (72 h, time 3 day): 77.4%
MCH (72 h, time 3 day): 22.1 pg
MCHC (72 h, time 3 day): 34.1%
MCV (72 h, time 3 day): 64.8 fL
Mono (72 h, time 3 day): 2.4%
Neu (72 h, time 3 day): 18.8%
PT (72 h, time 3 day): 11.6 s
Plat (72 h, time 3 day): 134.7 x10_4/uL
RBC (72 h, time 3 day): 606.8 x10_4/ul
Ret (72 h, time 3 day): 7.5%
WBC (72 h, time 3 day): 108.2 x10_2/uL
KIDNEY_L (72 h, time 3 day): 1 g
KIDNEY_R (72 h, time 3 day): 1 g
KIDNEY_TOTAL (72 h, time 3 day): 1.9 g
LIVER (72 h, time 3 day): 11.4 g
A/G (72 h, time 3 day): 1.4
ALP (72 h, time 3 day): 1206 IU/L
ALT (72 h, time 3 day): 44.4 IU/L
AST (72 h, time 3 day): 65.8 IU/L
BUN (72 h, time 3 day): 15.2 mg/dL
CRE (72 h, time 3 day): 0.4 mg/dL
Ca (72 h, time 3 day): 10.8 mg/dL
Cl (72 h, time 3 day): 103.4 meq/L
DBIL (72 h, time 3 day): 0.072 mg/dL
GLC (72 h, time 3 day): 197.8 mg/dL
IP (72 h, time 3 day): 7.3 mg/dL
K (72 h, time 3 day): 4 meq/L
LDH (72 h, time 3 day): 206.4 IU/L
Na (72 h, time 3 day): 140.6 meq/L
PL (72 h, time 3 day): 166 mg/dL
RALB (72 h, time 3 day): 3.2 g/dL
TBIL (72 h, time 3 day): 0.1 mg/dL
TC (72 h, time 3 day): 86.6 mg/dL
TG (72 h, time 3 day): 72.6 mg/dL
TP (72 h, time 3 day): 5.6 g/dL
gamma-GTP (72 h, time 3 day): 1.4 IU/L
TERMINAL_BW ([…], time 7 day): 246 g
TERMINAL_BW ([…], time 14 day): 300.3 g
TERMINAL_BW ([…], time 28 day): 401.4 g
APTT ([…], time 7 day): 19.6 s
Bas ([…], time 7 day): 0%
Eos ([…], time 7 day): 0.8%
Fbg ([…], time 7 day): 232.6 mg/dL
Hb ([…], time 7 day): 14.1 g/dL
Ht ([…], time 7 day): 41%
Lym ([…], time 7 day): 82%
MCH ([…], time 7 day): 21.2 pg
MCHC ([…], time 7 day): 34.5%
MCV ([…], time 7 day): 61.7 fL
Mono ([…], time 7 day): 2.6%
Neu ([…], time 7 day): 14%
PT ([…], time 7 day): 11.9 s
Plat ([…], time 7 day): 112.6 x10_4/uL
RBC ([…], time 7 day): 666.4 x10_4/ul
Ret ([…], time 7 day): 5.5%
WBC ([…], time 7 day): 96.8 x10_2/uL
APTT ([…], time 14 day): 20.3 s
Bas ([…], time 14 day): 0%
Eos ([…], time 14 day): 0.8%
Fbg ([…], time 14 day): 238.4 mg/dL
Hb ([…], time 14 day): 14.6 g/dL
Ht ([…], time 14 day): 43%
Lym ([…], time 14 day): 80%
MCH ([…], time 14 day): 20.1 pg
MCHC ([…], time 14 day): 33.9%
MCV ([…], time 14 day): 59.4 fL
Mono ([…], time 14 day): 2%
Neu ([…], time 14 day): 16.8%
PT ([…], time 14 day): 12 s
Plat ([…], time 14 day): 113.3 x10_4/uL
RBC ([…], time 14 day): 724.8 x10_4/ul
Ret ([…], time 14 day): 3.7%
WBC ([…], time 14 day): 110.3 x10_2/uL
APTT ([…], time 28 day): 21.2 s
Bas ([…], time 28 day): 0%
Eos ([…], time 28 day): 1%
Fbg ([…], time 28 day): 238 mg/dL
Hb ([…], time 28 day): 14.8 g/dL
Ht ([…], time 28 day): 43.3%
Lym ([…], time 28 day): 85.4%
MCH ([…], time 28 day): 19.1 pg
MCHC ([…], time 28 day): 34.2%
MCV ([…], time 28 day): 55.8 fL
Mono ([…], time 28 day): 2.8%
Neu ([…], time 28 day): 10.2%
PT ([…], time 28 day): 12.3 s
Plat ([…], time 28 day): 113.3 x10_4/uL
RBC ([…], time 28 day): 776.8 x10_4/ul
Ret ([…], time 28 day): 2.8%
WBC ([…], time 28 day): 104.8 x10_2/uL
KIDNEY_L ([…], time 7 day): 1 g
KIDNEY_R ([…], time 7 day): 1 g
KIDNEY_TOTAL ([…], time 7 day): 2.1 g
KIDNEY_L ([…], time 14 day): 1.2 g
KIDNEY_R ([…], time 14 day): 1.2 g
KIDNEY_TOTAL ([…], time 14 day): 2.3 g
KIDNEY_L ([…], time 28 day): 1.3 g
KIDNEY_R ([…], time 28 day): 1.3 g
KIDNEY_TOTAL ([…], time 28 day): 2.7 g
LIVER ([…], time 7 day): 12.4 g
LIVER ([…], time 14 day): 14.4 g
LIVER ([…], time 28 day): 19.2 g
A/G ([…], time 7 day): 1.6
ALP ([…], time 7 day): 1004.8 IU/L
ALT ([…], time 7 day): 39.2 IU/L
AST ([…], time 7 day): 70.8 IU/L
BUN ([…], time 7 day): 14.8 mg/dL
CRE ([…], time 7 day): 0.4 mg/dL
Ca ([…], time 7 day): 10.7 mg/dL
Cl ([…], time 7 day): 104.8 meq/L
DBIL ([…], time 7 day): 0.076 mg/dL
GLC ([…], time 7 day): 200.8 mg/dL
IP ([…], time 7 day): 7.7 mg/dL
K ([…], time 7 day): 4.1 meq/L
LDH ([…], time 7 day): 202 IU/L
Na ([…], time 7 day): 141.6 meq/L
PL ([…], time 7 day): 159.8 mg/dL
RALB ([…], time 7 day): 3.5 g/dL
TBIL ([…], time 7 day): 0.1 mg/dL
TC ([…], time 7 day): 75.2 mg/dL
TG ([…], time 7 day): 87.2 mg/dL
TP ([…], time 7 day): 5.6 g/dL
gamma-GTP ([…], time 7 day): 1.2 IU/L
A/G ([…], time 14 day): 1.5
ALP ([…], time 14 day): 898.4 IU/L
ALT ([…], time 14 day): 42.2 IU/L
AST ([…], time 14 day): 75 IU/L
BUN ([…], time 14 day): 15.4 mg/dL
CRE ([…], time 14 day): 0.4 mg/dL
Ca ([…], time 14 day): 10.5 mg/dL
Cl ([…], time 14 day): 103.4 meq/L
DBIL ([…], time 14 day): 0.056 mg/dL
GLC ([…], time 14 day): 201.4 mg/dL
IP ([…], time 14 day): 8 mg/dL
K ([…], time 14 day): 3.7 meq/L
LDH ([…], time 14 day): 207.4 IU/L
Na ([…], time 14 day): 141.6 meq/L
PL ([…], time 14 day): 138.6 mg/dL
RALB ([…], time 14 day): 3.6 g/dL
TBIL ([…], time 14 day): 0.1 mg/dL
TC ([…], time 14 day): 67.4 mg/dL
TG ([…], time 14 day): 55 mg/dL
TP ([…], time 14 day): 6 g/dL
gamma-GTP ([…], time 14 day): 1 IU/L
A/G ([…], time 28 day): 1.3
ALP ([…], time 28 day): 634.2 IU/L
ALT ([…], time 28 day): 40 IU/L
AST ([…], time 28 day): 75.2 IU/L
BUN ([…], time 28 day): 17.2 mg/dL
CRE ([…], time 28 day): 0.4 mg/dL
Ca ([…], time 28 day): 10.6 mg/dL
Cl ([…], time 28 day): 102.2 meq/L
DBIL ([…], time 28 day): 0.072 mg/dL
GLC ([…], time 28 day): 211.2 mg/dL
IP ([…], time 28 day): 6.6 mg/dL
K ([…], time 28 day): 3.9 meq/L
LDH ([…], time 28 day): 228 IU/L
Na ([…], time 28 day): 140.6 meq/L
PL ([…], time 28 day): 132 mg/dL
RALB ([…], time 28 day): 3.5 g/dL
TBIL ([…], time 28 day): 0.1 mg/dL
TC ([…], time 28 day): 59.6 mg/dL
TG ([…], time 28 day): 86.6 mg/dL
TP ([…], time 28 day): 6.2 g/dL
gamma-GTP ([…], time 28 day): 0.8 IU/L

From ChEMBL document CHEMBL3885861, “Open TG-GATES”
